Results reported in ChEMBL document CHEMBL1133475, “Inhibitors of NF-kappaB and AP-1 gene expression: SAR studies on the pyrimidine portion of 2-chloro-4-trifluoromethylpyrimidine-5-[N-(3', 5'-bis(trifluoromethyl)phenyl)carboxamide]” (J Med Chem, 2000).

Organism: Homo sapiens
Test: Compound was tested for permeability in Caco-2 cells by HPLC method
Assay type: ADME, cell-based

Permeability [×10⁻⁶ cm/s]	Compound
1.9	O=C(Nc1cc(C(F)(F)F)cc(C(F)(F)F)c1)c1cnc(F)nc1C(F)(F)F
0.9	O=C(Nc1cc(C(F)(F)F)cc(C(F)(F)F)c1)c1cnc(Cl)nc1C(F)(F)C(F)(F)F
1.1	O=C(Nc1cc(C(F)(F)F)cc(C(F)(F)F)c1)c1cnc(Cl)nc1C(F)(F)F
3.1	O=C(Nc1cc(C(F)(F)F)cc(C(F)(F)F)c1)c1cnc(Cl)nc1Cl

Further lines, the molecule ahead of its results:

Compound	Permeability [×10⁻⁶ cm/s]
O=C(Nc1cc(C(F)(F)F)cc(C(F)(F)F)c1)c1cnc(Cl)nc1-c1ccccc1	0.9
O=C(Nc1cc(C(F)(F)F)cc(C(F)(F)F)c1)c1cnc(Cl)nc1	6.1
CCc1nc(Cl)ncc1C(=O)Nc1cc(C(F)(F)F)cc(C(F)(F)F)c1	5.8
Cc1nc(Cl)ncc1C(=O)Nc1cc(C(F)(F)F)cc(C(F)(F)F)c1	6.2
O=C(Nc1cc(C(F)(F)F)cc(C(F)(F)F)c1)c1cnc(Cl)nc1-c1cccs1	2.1
CCCc1nc(Cl)ncc1C(=O)Nc1cc(C(F)(F)F)cc(C(F)(F)F)c1	3.1
